Experiments:
[1] = tested on: Spleen; experiment: Biodistribution in S180 tumor-bearing mouse spleen at 8 to 10 uCi, iv after 60 mins by gamma counting; type: ADME, organism-based; settings: in vivo, 1 h
[2] = tested on: Heart; experiment: Biodistribution in S180 tumor-bearing mouse heart at 8 to 10 uCi, iv after 30 mins by gamma counting; type: ADME, organism-based; settings: in vivo, 0.5 h
[3] = tested on: Muscle tissue; experiment: Biodistribution in S180 tumor-bearing mouse muscle at 8 to 10 uCi, iv after 120 mins by gamma counting; type: ADME, organism-based; settings: in vivo, 2 h
[4] = tested on: Brain; experiment: Biodistribution in S180 tumor-bearing mouse brain at 8 to 10 uCi, iv after 120 mins by gamma counting; type: ADME, organism-based; settings: in vivo, 2 h
[5] = tested on: Nucleic Acid; experiment: Ratio of drug level in tumor to brain in S180 tumor-bearing mouse at 8 to 10 uCi, iv at 30 mins by gamma counting; type: ADME, organism-based; settings: in vivo, 0.5 h
[6] = tested on: Blood; experiment: Biodistribution in S180 tumor-bearing mouse blood at 8 to 10 uCi, iv after 120 mins by gamma counting; type: ADME, organism-based; settings: in vivo, 2 h
[7] = tested on: Lung; experiment: Biodistribution in S180 tumor-bearing mouse lung at 8 to 10 uCi, iv after 120 mins by gamma counting; type: ADME, organism-based; settings: in vivo, 2 h
[8] = tested on: Nucleic Acid; experiment: Ratio of drug level in tumor to blood in S180 tumor-bearing mouse at 8 to 10 uCi, iv at 60 mins by gamma counting; type: ADME, organism-based; settings: tumour, 1 h
[9] = tested on: Blood; experiment: Biodistribution in S180 tumor-bearing mouse blood at 8 to 10 uCi, iv after 30 mins by gamma counting; type: ADME, organism-based; settings: in vivo, 0.5 h
[10] = tested on: Blood; experiment: Biodistribution in S180 tumor-bearing mouse blood at 8 to 10 uCi, iv after 60 mins by gamma counting; type: ADME, organism-based; settings: in vivo, 1 h
[11] = tested on: Nucleic Acid; experiment: Ratio of drug level in tumor to blood in S180 tumor-bearing mouse at 8 to 10 uCi, iv at 120 mins by gamma counting; type: ADME, organism-based; settings: tumour, 2 h
[12] = tested on: Spleen; experiment: Biodistribution in S180 tumor-bearing mouse spleen at 8 to 10 uCi, iv after 30 mins by gamma counting; type: ADME, organism-based; settings: in vivo, 0.5 h
[13] = n-octanol-PBS partition coefficient, logP of the compound; type: physicochemical
[14] = tested on: Brain; experiment: Biodistribution in S180 tumor-bearing mouse brain at 8 to 10 uCi, iv after 30 mins by gamma counting; type: ADME, organism-based; settings: in vivo, 0.5 h
[15] = tested on: Heart; experiment: Biodistribution in S180 tumor-bearing mouse heart at 8 to 10 uCi, iv after 5 mins by gamma counting; type: ADME, organism-based; settings: in vivo
[16] = tested on: Stomach; experiment: Biodistribution in S180 tumor-bearing mouse stomach at 8 to 10 uCi, iv after 60 mins by gamma counting; type: ADME, organism-based; settings: in vivo, 1 h
[17] = tested on: Mus musculus; experiment: Biodistribution in S180 cells xenografted in mouse tumor at 8 to 10 uCi, iv after 5 mins by gamma counting; type: ADME, organism-based, Neoplasm, CCRF S-180; settings: in vivo
[18] = Chemical stability in PBS after 2 hrs by radio-HPLC analysis at room temperature; type: physicochemical; settings: buffer
[19] = tested on: Nucleic Acid; experiment: Ratio of drug level in tumor to muscle in S180 tumor-bearing mouse at 8 to 10 uCi, iv at 30 mins by gamma counting; type: ADME, organism-based; settings: in vivo, 0.5 h
[20] = tested on: Stomach; experiment: Biodistribution in S180 tumor-bearing mouse stomach at 8 to 10 uCi, iv after 5 mins by gamma counting; type: ADME, organism-based; settings: in vivo
[21] = tested on: Nucleic Acid; experiment: Ratio of drug level in tumor to blood in S180 tumor-bearing mouse at 8 to 10 uCi, iv at 5 mins by gamma counting; type: ADME, organism-based; settings: tumour
[22] = tested on: Stomach; experiment: Biodistribution in S180 tumor-bearing mouse stomach at 8 to 10 uCi, iv after 120 mins by gamma counting; type: ADME, organism-based; settings: in vivo, 2 h
[23] = tested on: Blood; experiment: Biodistribution in S180 tumor-bearing mouse blood at 8 to 10 uCi, iv after 5 mins by gamma counting; type: ADME, organism-based; settings: in vivo
[24] = tested on: Muscle tissue; experiment: Biodistribution in S180 tumor-bearing mouse muscle at 8 to 10 uCi, iv after 5 mins by gamma counting; type: ADME, organism-based; settings: in vivo
[25] = tested on: Mus musculus; experiment: Biodistribution in S180 cells xenografted in mouse tumor at 8 to 10 uCi, iv after 30 mins by gamma counting; type: ADME, organism-based, Neoplasm, CCRF S-180; settings: in vivo, 0.5 h
[26] = tested on: Liver; experiment: Biodistribution in S180 tumor-bearing mouse liver at 8 to 10 uCi, iv after 60 mins by gamma counting; type: ADME, organism-based; settings: in vivo, 1 h
[27] = tested on: Spleen; experiment: Biodistribution in S180 tumor-bearing mouse spleen at 8 to 10 uCi, iv after 120 mins by gamma counting; type: ADME, organism-based; settings: in vivo, 2 h
[28] = tested on: Brain; experiment: Biodistribution in S180 tumor-bearing mouse brain at 8 to 10 uCi, iv after 60 mins by gamma counting; type: ADME, organism-based; settings: in vivo, 1 h
[29] = tested on: Liver; experiment: Biodistribution in S180 tumor-bearing mouse liver at 8 to 10 uCi, iv after 5 mins by gamma counting; type: ADME, organism-based; settings: in vivo
[30] = tested on: Stomach; experiment: Biodistribution in S180 tumor-bearing mouse stomach at 8 to 10 uCi, iv after 30 mins by gamma counting; type: ADME, organism-based; settings: in vivo, 0.5 h
[31] = tested on: Kidney; experiment: Biodistribution in S180 tumor-bearing mouse kidney at 8 to 10 uCi, iv after 120 mins by gamma counting; type: ADME, organism-based; settings: in vivo, 2 h
[32] = tested on: Nucleic Acid; experiment: Ratio of drug level in tumor to brain in S180 tumor-bearing mouse at 8 to 10 uCi, iv at 5 mins by gamma counting; type: ADME, organism-based; settings: in vivo
[33] = Chemical stability in PBS after 2 hrs by radio-HPLC analysis at 60 degC; type: physicochemical; settings: buffer
[34] = tested on: Nucleic Acid; experiment: Ratio of drug level in tumor to muscle in S180 tumor-bearing mouse at 8 to 10 uCi, iv at 60 mins by gamma counting; type: ADME, organism-based; settings: in vivo, 1 h
[35] = tested on: Kidney; experiment: Biodistribution in S180 tumor-bearing mouse kidneys at 8 to 10 uCi, iv after 5 mins by gamma counting; type: ADME, organism-based; settings: in vivo
[36] = tested on: Kidney; experiment: Biodistribution in S180 tumor-bearing mouse kidney at 8 to 10 uCi, iv after 60 mins by gamma counting; type: ADME, organism-based; settings: in vivo, 1 h
[37] = tested on: Kidney; experiment: Biodistribution in S180 tumor-bearing mouse kidney at 8 to 10 uCi, iv after 30 mins by gamma counting; type: ADME, organism-based; settings: in vivo, 0.5 h
[38] = tested on: Brain; experiment: Biodistribution in S180 tumor-bearing mouse brain at 8 to 10 uCi, iv after 5 mins by gamma counting; type: ADME, organism-based; settings: in vivo
[39] = tested on: Heart; experiment: Biodistribution in S180 tumor-bearing mouse heart at 8 to 10 uCi, iv after 60 mins by gamma counting; type: ADME, organism-based; settings: in vivo, 1 h
[40] = tested on: Plasma; experiment: Metabolic stability in mouse plasma after 2 hrs by radio-HPLC analysis; type: ADME, cell-free
[41] = tested on: Mus musculus; experiment: Biodistribution in S180 cells xenografted in mouse tumor at 8 to 10 uCi, iv after 120 mins by gamma counting; type: ADME, organism-based, Neoplasm, CCRF S-180; settings: in vivo, 2 h
[42] = tested on: Nucleic Acid; experiment: Ratio of drug level in tumor to muscle in S180 tumor-bearing mouse at 8 to 10 uCi, iv at 5 mins by gamma counting; type: ADME, organism-based; settings: in vivo
[43] = tested on: Lung; experiment: Biodistribution in S180 tumor-bearing mouse lung at 8 to 10 uCi, iv after 60 mins by gamma counting; type: ADME, organism-based; settings: in vivo, 1 h
[44] = tested on: Heart; experiment: Biodistribution in S180 tumor-bearing mouse heart at 8 to 10 uCi, iv after 120 mins by gamma counting; type: ADME, organism-based; settings: in vivo, 2 h
[45] = tested on: Liver; experiment: Biodistribution in S180 tumor-bearing mouse liver at 8 to 10 uCi, iv after 120 mins by gamma counting; type: ADME, organism-based; settings: in vivo, 2 h
[46] = tested on: Lung; experiment: Biodistribution in S180 tumor-bearing mouse lung at 8 to 10 uCi, iv after 30 mins by gamma counting; type: ADME, organism-based; settings: in vivo, 0.5 h
[47] = tested on: Spleen; experiment: Biodistribution in S180 tumor-bearing mouse spleen at 8 to 10 uCi, iv after 5 mins by gamma counting; type: ADME, organism-based; settings: in vivo
[48] = tested on: Mus musculus; experiment: Biodistribution in S180 cells xenografted in mouse tumor at 8 to 10 uCi, iv after 60 mins by gamma counting; type: ADME, organism-based, Neoplasm, CCRF S-180; settings: in vivo, 1 h
[49] = tested on: Nucleic Acid; experiment: Ratio of drug level in tumor to muscle in S180 tumor-bearing mouse at 8 to 10 uCi, iv at 120 mins by gamma counting; type: ADME, organism-based; settings: in vivo, 2 h
[50] = tested on: Nucleic Acid; experiment: Ratio of drug level in tumor to brain in S180 tumor-bearing mouse at 8 to 10 uCi, iv at 60 mins by gamma counting; type: ADME, organism-based; settings: in vivo, 1 h
[51] = tested on: Lung; experiment: Biodistribution in S180 tumor-bearing mouse lungs at 8 to 10 uCi, iv after 5 mins by gamma counting; type: ADME, organism-based; settings: in vivo
[52] = tested on: Blood; experiment: Clearance in S180 tumor-bearing mouse blood at 8 to 10 uCi, iv at 120 mins; type: ADME, organism-based; settings: in vivo, 2 h
[53] = tested on: Muscle tissue; experiment: Biodistribution in S180 tumor-bearing mouse muscle at 8 to 10 uCi, iv after 60 mins by gamma counting; type: ADME, organism-based; settings: in vivo, 1 h
[54] = tested on: Nucleic Acid; experiment: Ratio of drug level in tumor to brain in S180 tumor-bearing mouse at 8 to 10 uCi, iv at 120 mins by gamma counting; type: ADME, organism-based; settings: in vivo, 2 h
[55] = tested on: Liver; experiment: Biodistribution in S180 tumor-bearing mouse liver at 8 to 10 uCi, iv after 30 mins by gamma counting; type: ADME, organism-based; settings: in vivo, 0.5 h
[56] = tested on: Nucleic Acid; experiment: Ratio of drug level in tumor to blood in S180 tumor-bearing mouse at 8 to 10 uCi, iv at 30 mins by gamma counting; type: ADME, organism-based; settings: tumour, 0.5 h
[57] = tested on: Muscle tissue; experiment: Biodistribution in S180 tumor-bearing mouse muscle at 8 to 10 uCi, iv after 30 mins by gamma counting; type: ADME, organism-based; settings: in vivo, 0.5 h

Compound: COc1cc2ncnc(Nc3cccc(Br)c3)c2cc1OCC[18F]
- Drug uptake [1]: 0.8 % ID/g
- Drug uptake [2]: 1.12 % ID/g
- Drug uptake [3]: 1.31 % ID/g
- Drug uptake [4]: 0.09 % ID/g
- Ratio [5]: 10.36
- Drug uptake [6]: 0.56 % ID/g
- Drug uptake [7]: 3.6 % ID/g
- Ratio [8]: 2.98
- Drug uptake [9]: 1.58 % ID/g
- Drug uptake [10]: 1.11 % ID/g
- Ratio [11]: 6.61
- Drug uptake [12]: 1.25 % ID/g
- logP [13]: 0.89
- Drug uptake [14]: 0.39 % ID/g
- Drug uptake [15]: 4.79 % ID/g
- Drug uptake [16]: 4.05 % ID/g
- Drug uptake [17]: 0.38 % ID/g
- Stability [18]: Stable
- Ratio [19]: 1.64
- Drug uptake [20]: 8.52 % ID/g
- Ratio [21]: 0.09
- Drug uptake [22]: 4.1 % ID/g
- Drug uptake [23]: 4.43 % ID/g
- Drug uptake [24]: 1.87 % ID/g
- Drug uptake [25]: 4.04 % ID/g
- Drug uptake [26]: 1.87 % ID/g
- Drug uptake [27]: 1.05 % ID/g
- Drug uptake [28]: 0.19 % ID/g
- Drug uptake [29]: 9.67 % ID/g
- Drug uptake [30]: 7.03 % ID/g
- Drug uptake [31]: 1.07 % ID/g
- Ratio [32]: 0.49
- Stability [33]: Stable
- Ratio [34]: 7.7
- Drug uptake [35]: 10.85 % ID/g
- Drug uptake [36]: 0.9 % ID/g
- Drug uptake [37]: 2.83 % ID/g
- Drug uptake [38]: 0.78 % ID/g
- Drug uptake [39]: 0.98 % ID/g
- Stability [40]: Stable
- Drug uptake [41]: 3.7 % ID/g
- Ratio [42]: 0.2
- Drug uptake [43]: 5.6 % ID/g
- Drug uptake [44]: 1.87 % ID/g
- Drug uptake [45]: 1.78 % ID/g
- Drug uptake [46]: 5.12 % ID/g
- Drug uptake [47]: 2.84 % ID/g
- Drug uptake [48]: 3.31 % ID/g
- Ratio [49]: 2.82
- Ratio [50]: 17.42
- Drug uptake [51]: 12.21 % ID/g
- CL [52]: 88%
- Drug uptake [53]: 0.43 % ID/g
- Ratio [54]: 41.11
- Drug uptake [55]: 7.96 % ID/g
- Ratio [56]: 2.56
- Drug uptake [57]: 2.46 % ID/g
